On the set-up of data set [1]: Ka of Xe binding / Ka for Xe binding to MBP+βCD: unit not given here. Particulars: cited from earlier work; for xenon association constant: room temperature.
The target of the next data set is MBP (Escherichia coli, UniProt P0AEX9). As to conditions: binding to MBP; cited from earlier work.
A short description of data set [2]: 129Xe hyper-CEST NMR of purified MBP and MBP mutants. As to conditions: for T1off / T1on / saturation contrast: 100 nM WT MBP.
Excerpt: Briefly, HP ^129Xe was generated using the spin-exchange optical pumping (SEOP) method with a home-built ^129Xe polarizer based on the IGI.Xe.2000 commercial model by GE. A Shark 65 W tunable ultra-narrow band diode laser (OptiGrate) set to 795 nm was used for optical pumping of Rb vapor. A gas mixture of 88% helium, 10% nitrogen, and 2% natural abundance xenon (Linde Group, N.J.) was used as the hyperpolarizer input. ^129Xe hyperpolarization level was roughly 10-15%. For each data point in the hyper-CEST z-spectra, HP ^129Xe was bubbled into the NMR tube through capillaries for 20 seconds, followed by a 3-second delay to allow bubbles to collapse. A Dsnob saturation pulse with 690 Hz bandwidth was used. Pulse length tpulse=3.80 ms, field strength B1, max=77 μT, number of pulses npulse=400, saturation time Tsat=1.52 s. NMR experiments were performed using a Bruker BioDRX 500 MHz NMR spectrometer and 10-mm PABBO probe, at 300 K. A 900 hard pulse of this probe has a pulse length of 22 μs. Unless otherwise noted, the protein concentration used was 80 μM, with 0.1% (v/v) Pluronic L81 (Aldrich) added to mitigate foaming.
Briefly, hyperpolarized (hp)^129Xe was generated using the spin-exchange optical pumping (SEOP) method with a home-built ^129Xe polarizer based on the IGI.Xe.2000 commercial model by GE. A Shark 65 W tunable ultra-narrow band diode laser (OptiGrate) set to 795 nm was used for optical pumping of Rb vapor. A gas mixture of 88% helium, 10% nitrogen, and 2% natural abundance xenon (Linde Group, N.J.) was used as the hyperpolarizer input. ^129Xe hyperpolarization level was roughly 10-15%. For each data point in the hyper-CEST z-spectra, hp ^129Xe was bubbled into the NMR tube through capillaries for 20 s, followed by a 3-s delay to allow bubbles to collapse. A d-SNOB saturation pulse with 690 Hz bandwidth was used. Pulse length, tpulse=3.80 ms; field strength B1,max=77 μT; number of pulses, npulse=400; saturation time, Tsat=1.52 s. NMR experiments were performed using a Bruker BioDRX 500 MHz NMR spectrometer and 10-mm PABBO probe, at 300 K. A 900 hard pulse of this probe has a pulse length of 22 μs. Unless otherwise noted, the protein concentration used was 80 μM, with 0.1% (v/v) Pluronic L81 (Aldrich) added to mitigate foaming. […] Pulse length, Tpulse=1.0496 ms; field strength, B1max=279 μT. Both on-resonance and off-resonance data were fitted with first-order exponential decay curves.
Another data set concerns BL21(DE3) E. coli. As to the kind of experiment: Hyper-CEST of MBP expressed in E. coli (pET-MBP plasmid). It counts as cell-based. Particulars: for Contrast, corrected: contrast of non-induced E. coli subtracted; for T1off / T1on: OD600=9; for saturation contrast: OD600=9, +95/−95 ppm.
A short description of data set [3]: MBP fluorescence quenching by maltose. Type of data set: binding. As to conditions: 4 μM MBP, 400 μM maltose, 20 mM HEPES pH 7.4, excitation 280 nm.
Description: Fluorescence spectra were obtained on a Tecan Infinite M1000 PRO microplate reader using black 96 well flat-bottom microplates (Grenier Bio-One). […] Excitation was at 280 nm and emission was scanned from 300 to 400 nm in 1 nm increments. All fluorescence assays were performed in triplicate and averaged. Fluorescence spectra were background corrected by subtracting the fluorescence spectrum of the well solution in the absence of protein.
The nature of data set [4]: 129Xe hyper-CEST NMR of GFP-RBP mutants. The protocol:
To evaluate whether GFP-RBP(L19A) reports any Xe hyper-CEST contrast, a hyper-CEST z-spectrum was acquired from 10 μM GFP-RBP(L19A) in the presence and absence of ribose. Multiple selective Dsnob-shaped saturation pulses were scanned over the chemical shift range of 93-358 ppm in 5 ppm steps, and the ^129Xe(aq) signal was measured as a function of saturation pulse offset (FIG. 55).
To assess the detection sensitivity of GFP-RBP(L19A), time-dependent saturation transfer experiments were performed by measuring Xe(aq) polarization as a function of saturation time. Shaped saturation pulses were applied at the chemical shift of Xe@RBP(L19A)closed, and the residual aqueous ^129Xe signal after saturation transfer was measured as an on-resonance CEST response. Saturation frequencies of Dsnob-shaped pulses were positioned at +42.5 and −42.5 ppm, referenced to the Xe(aq) peak, for on- and off-resonance, respectively. The pulse length was 1.727 ms, and the field strength was 170 μT. The normalized difference between on- and off-resonance signals was represented by the saturation contrast.

The conditions of data set [5]: RBP from E. coli; read-out: Kd for ribose; cited from earlier work.
A short description of data set [6]: bla hydrolase activity assay pre- and post-CEST. Type of data set: biochemical. Particulars: 5 nM enzyme, 450 μM nitrocefin, 50 mM Tris pH 7.4, 5% DMSO. The protocol:
The hydrolysis of nitrocefin was monitored at A482 using an Infinite M1000 Pro plate reader (Tecan).
Product formation was monitored at A482 using an Infinite M1000 Pro plate reader (Tecan). The assays were performed in triplicate for pre- and post-hyper CEST bla(I263A) and bla(I279N) samples.

Where [7] appears, read: induced E. coli with maltose, 6±4 μM MBP.
The mark [8] stands for this setting: induced E. coli without maltose, 15±6 μM MBP.

Entries after “also recorded” stand apart in the source; their conditions may differ.

Excerpt for BL21(DE3) E. coli: All cell solutions were normalized to OD600=9. Saturation frequencies of Dsnob-shaped pulses were positioned at +95 ppm and −95 ppm, referenced to the Xe(aq) peak, for on- and off-resonance, respectively. Pulse length, τpulse=1.0496 ms; field strength, B1,max=279 μT. Both on-resonance and off-resonance data were fitted with first-order exponential decay curves.

For myoglobin [reference compound], in data set [1], the xenon association constant entry is recorded as “around 200 M^−1”.

The Kd is the concentration at which binding is half-saturated. Take `OC[C@H]1O[C@@H]2O[C@H]3[C@H](O)[C@@H](O)[C@@H](O[C@H]4[C@H](O)[C@@H](O)[C@@H](O[C@H]5[C@H](O)[C@@H](O)[C@@H](O[C@H]6[C@H](O)[C@@H](O)[C@@H](O[C@H]7[C@H](O)[C@@H](O)[C@@H](O[C@H]8[C@H](O)[C@@H](O)[C@@H](O[C@H]1[C@H](O)[C@H]2O)O[C@@H]8CO)O[C@@H]7CO)O[C@@H]6CO)O[C@@H]5CO)O[C@@H]4CO)O[C@@H]3CO` [βCD, β-cyclodextrin]: the equilibrium dissociation constant (Kd) on MBP was 1800 nM.

Regarding maltose binding protein [MBP], in data set [1] (1H-15N HSQC NMR), the “Ka for Xe binding to MBP+maltose” value was “too low to measure”. In data set [1] (1H-15N HSQC NMR), the “Ka for Xe binding to MBP+βCD” value is given as 20±10. Besides, the “Ka of Xe binding” value in data set [1] (MBP in the open conformation, HSQC NMR) was 20±10. In data set [1] (experimentally determined literature values), the “Xe binding affinity (association constant)” value is 20 ± 10 M⁻¹. Moreover, the T1off in data set [2] (0 μM maltose) is 44 ± 3 s; in data set [2] (0.1 μM maltose), 41 ± 3 s; in data set [2] (0.3 μM maltose), 43 ± 1 s; in data set [2] (0.5 μM maltose), 39 ± 1 s; in data set [2] (1 μM maltose), 50 ± 1 s; in data set [2] (3 μM maltose), 46 ± 2 s. Moreover, the results for the T1off (in data set [2] (1 mM maltose); in the data set with BL21(DE3) E. coli (setting [7]); in the data set on BL21(DE3) E. coli (setting [8])) were 55 ± 3 s, 16.7 ± 0.6 s and 9.3 ± 0.3 s, respectively. In addition, the T1on in data set [2] (0 μM maltose) worked out at 41 ± 2 s; in data set [2] (0.1 μM maltose), 34 ± 1 s; in data set [2] (0.3 μM maltose), 35 ± 1 s; in data set [2] (0.5 μM maltose), 26.3 ± 0.9 s; in data set [2] (1 μM maltose), 32.7 ± 0.7 s; in data set [2] (3 μM maltose) it was 26 ± 1 s. The T1on in data set [2] (1 mM maltose) turned out to be 21.8 ± 0.6 s; in data set [2] (1 mM maltose, listed as WT MBP), 21.8 ± 0.7 s; with BL21(DE3) E. coli (setting [7]), 4.94 ± 0.10 s; in the data set on BL21(DE3) E. coli (setting [8]), 5.35 ± 0.17 s. The saturation contrast in data set [2] (0 μM maltose, pH 7.2 PBS, 300 K) is 0.022±0.004; in data set [2] (0.1 μM maltose), 0.050±0.007; in data set [2] (0.3 μM maltose) it was 0.05±0.01; in data set [2] (0.5 μM maltose), 0.11±0.01; in data set [2] (1 μM maltose), 0.118±0.007; in data set [2] (3 μM maltose) it was 0.161±0.004. In addition, the saturation contrast was found to be 0.26±0.01 in data set [2] (1 mM maltose), 0.60±0.02 with BL21(DE3) E. coli (setting [7]) and 0.40±0.06 in the data set with BL21(DE3) E. coli (setting [8]). Further, the “lowest maltose concentration readily detected (detection threshold)” value in data set [2] (100 nM protein sensor) worked out at 100 nM. For the same molecule, in data set [2] (80 μM MBP, 1 mM β-cyclodextrin), the “downfield saturation response in z-spectrum” value is “no downfield Xe@MBP peak; also recorded: no downfield saturation response”. Also, the “saturation response in z-spectrum” value in data set [2] (80 μM protein, without maltose) is reported as “only a single saturation response”. Besides, the “Contrast per μM MBP” value is 0.05 ± 0.03 in the data set with BL21(DE3) E. coli (E. coli with maltose) and 0.013 ± 0.005 with BL21(DE3) E. coli (E. coli without maltose). In addition, the “Contrast, corrected” value turned out to be 0.28 with BL21(DE3) E. coli (E. coli with maltose) and 0.19 in the data set with BL21(DE3) E. coli (E. coli without maltose). Further, the “increase in observed CEST contrast generated by maltose” value with BL21(DE3) E. coli (background subtracted, normalized to MBP concentration) is reported as 3.7 fold. For the same molecule, the “magnitude of fluorescence quenching by maltose” value in data set [3] is 22%.

Take hemoglobin [reference compound]: in data set [1], the xenon association constant result is on record as “around 200 M^−1”.

As to “GFP-RBP(L19A): fusion of GFP and ribose binding protein with L19A mutation (SEQ ID NO: 46)”, the “saturation contrast (maximum)” value in data set [4] (100 nM GFP-RBP(L19A), pulses at +42.5/−42.5 ppm) was determined as 0.30±0.01. In addition, in data set [4] (10 μM protein, unliganded (no ribose)), the “saturation response in z-spectrum” value is on record as “only a single saturation response”.

B1: ribose binding protein (protein)
chain: KDTIALVVSTLNNPFFVSLKDGAQKEADKLGYNLVVLDSQNNPAKELANVQDLTVRGTKILLINPTDSDAVGNAVKMANQANIPVITLDRQATKGEVVSHIASDNVLGGKIAGDYIAKKAGEGAKVIELQGIAGTSAARERGEGFQQAVAAHKFNVLASQPADFDRIKGLNVMQNLLTAHPDVQAVFAQNDEMALGALRALQTAGKSDVMVVGFDGTPDGEKAVNDGKLAATIAQLPDQIGAKGVETADKVLKGEKVQAKYPVDLKLVVKQ
modifications: Native amino acid sequence of RBP for expression in E. coli
On to B1, for which, in data set [5], the Kd was 130 nM.

B2: RBP(L19A): ribose binding protein having a L19A mutation (SEQ ID NO: 44) (protein)
chain: KDTIALVVSTLNNPFFVSAKDGAQKEADKLGYNLVVLDSQNNPAKELANVQDLTVRGTKILLINPTDSDAVGNAVKMANQANIPVITLDRQATKGEVVSHIASDNVLGGKIAGDYIAKKAGEGAKVIELQGIAGTSAARERGEGFQQAVAAHKFNVLASQPADFDRIKGLNVMQNLLTAHPDVQAVFAQNDEMALGALRALQTAGKSDVMVVGFDGTPDGEKAVNDGKLAATIAQLPDQIGAKGVETADKVLKGEKVQAKYPVDLKLVVKQ
modifications: Amino acid sequence of RBP(L19A)
B2: in data set [1] (1H-15N HSQC NMR), the “xenon binding affinity, closed conformation” value was 40 ± 20 M⁻¹ and the “xenon binding affinity, open conformation” value was 70 ± 30 M⁻¹.

B3: I263A: bla having an I263A mutation (SEQ ID NO: 5) (protein)
chain: MSIQHFRVALIPFFAAFCLPVFAHPETLVKVKDAEDQLGARVGYIELDLNSGKILESFRPEERFPMMSTFKVLLCGAVLSRVDAGQEQLGRRIHYSQNDLVEYSPVTEKHLTDGMTVRELCSAAITMSDNTAANLLLTTIGGPKELTAFLHNMGDHVTRLDRWEPELNEAIPNDERDTTMPAAMATTLRKLLTGELLTLASRQQLIDWMEADKVAGPLLRSALPAGWFIADKSGAGERGSRGIIAALGPDGKPSRIVVAYTTGSQATMDERNRQIAEIGASLIKHW
modifications: TEM-1 beta-lactamase with a I263A mutation (mutation at residue 259)
On to B3, for which, in data set [6] (listed as bla(I263A)), the “Initial Rate, after CEST” value stood at 0.153±0.009 A482 min^−1 and the “Initial Rate, before CEST” value is 0.142±0.002 A482 min^−1.

B4: I279N: bla having an I279N mutation (SEQ ID NO: 6) (protein)
chain: MSIQHFRVALIPFFAAFCLPVFAHPETLVKVKDAEDQLGARVGYIELDLNSGKILESFRPEERFPMMSTFKVLLCGAVLSRVDAGQEQLGRRIHYSQNDLVEYSPVTEKHLTDGMTVRELCSAAITMSDNTAANLLLTTIGGPKELTAFLHNMGDHVTRLDRWEPELNEAIPNDERDTTMPAAMATTLRKLLTGELLTLASRQQLIDWMEADKVAGPLLRSALPAGWFIADKSGAGERGSRGIIAALGPDGKPSRIVVIYTTGSQATMDERNRQNAEIGASLIKHW
modifications: TEM-1 beta-lactamase with a I279N mutation (mutation at residue 275)
For the molecule B4, in data set [6], the “Initial Rate, after CEST” value is listed as 0.047 ± 0.002 A482 min^−1 and the “Initial Rate, before CEST” value amounted to 0.044 ± 0.003 A482 min^−1.
